Structures can show the parent of a compound that is named as a salt. Where two headings read alike, the source gives them in different places.
Tests used:
Format in all cases: biochemical
trypsin = target: T1, trypsin (Bos taurus, UniProt P00760); assay: anti-trypsin activity, hydrolysis of TAME (tosylarginine methyl ester)
T1 sequence (P00760 24-246): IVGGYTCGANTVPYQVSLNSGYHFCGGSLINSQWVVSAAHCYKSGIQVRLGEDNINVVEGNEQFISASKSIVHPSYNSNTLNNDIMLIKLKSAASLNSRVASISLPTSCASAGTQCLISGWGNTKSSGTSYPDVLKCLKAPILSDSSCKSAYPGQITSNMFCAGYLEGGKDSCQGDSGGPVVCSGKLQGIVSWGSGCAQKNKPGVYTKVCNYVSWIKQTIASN

C1s = target: T2, C1s (Homo sapiens, UniProt P09871); assay: anti-complement (anti-C1 esterase) activity, C1s hydrolysis of ATEE (acetyltyrosine ethyl ester); conditions: for IC50: hydrolysis of ATEE, read-out: Cls: molar concentration inhibiting 50% of C1s activity (IC50)
T2 sequence (P09871 16-688): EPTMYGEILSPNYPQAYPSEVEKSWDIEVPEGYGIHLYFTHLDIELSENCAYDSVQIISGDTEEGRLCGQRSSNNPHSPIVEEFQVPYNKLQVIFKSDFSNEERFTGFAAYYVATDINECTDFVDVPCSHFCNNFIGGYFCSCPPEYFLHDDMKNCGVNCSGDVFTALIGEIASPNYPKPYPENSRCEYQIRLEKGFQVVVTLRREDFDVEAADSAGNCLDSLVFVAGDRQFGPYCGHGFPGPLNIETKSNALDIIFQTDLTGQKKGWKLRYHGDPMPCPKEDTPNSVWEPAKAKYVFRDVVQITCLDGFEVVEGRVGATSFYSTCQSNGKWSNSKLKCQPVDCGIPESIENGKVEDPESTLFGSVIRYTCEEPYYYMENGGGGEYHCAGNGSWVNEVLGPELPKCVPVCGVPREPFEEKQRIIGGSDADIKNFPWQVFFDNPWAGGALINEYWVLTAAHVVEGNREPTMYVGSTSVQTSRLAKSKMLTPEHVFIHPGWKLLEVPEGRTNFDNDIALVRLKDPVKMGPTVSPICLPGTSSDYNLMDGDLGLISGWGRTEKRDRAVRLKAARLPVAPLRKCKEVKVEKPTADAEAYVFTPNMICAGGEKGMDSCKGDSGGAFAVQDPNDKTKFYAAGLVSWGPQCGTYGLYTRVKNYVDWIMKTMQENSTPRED
Experimental: The anti-C1 esterase (C1r, C1s) activity was determined according to the method of Okamura et al. (Biochem. Biophys. Acta (1973), volume 295, pages 252-257). […] The values for C1s represent molar concentrations (IC50) of test compounds which inhibit 50% of the activity of C1s to hydrolyze ATEE (acetyltyrosine ethyl ester).

plasmin = plasmin (Homo sapiens, UniProt P00747); assay: anti-plasmin activity, hydrolysis of TAME (tosylarginine methyl ester)
Sequence of plasmin (P00747 581-810 limits assumed, species assumed): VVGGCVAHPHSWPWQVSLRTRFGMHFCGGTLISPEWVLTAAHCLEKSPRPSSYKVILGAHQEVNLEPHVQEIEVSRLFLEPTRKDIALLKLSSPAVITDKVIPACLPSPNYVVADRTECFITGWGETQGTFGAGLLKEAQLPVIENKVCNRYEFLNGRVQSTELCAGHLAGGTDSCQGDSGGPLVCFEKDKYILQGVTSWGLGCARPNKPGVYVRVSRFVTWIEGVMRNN
Sequence of plasmin (P00747 97-580 partner limits assumed, species assumed): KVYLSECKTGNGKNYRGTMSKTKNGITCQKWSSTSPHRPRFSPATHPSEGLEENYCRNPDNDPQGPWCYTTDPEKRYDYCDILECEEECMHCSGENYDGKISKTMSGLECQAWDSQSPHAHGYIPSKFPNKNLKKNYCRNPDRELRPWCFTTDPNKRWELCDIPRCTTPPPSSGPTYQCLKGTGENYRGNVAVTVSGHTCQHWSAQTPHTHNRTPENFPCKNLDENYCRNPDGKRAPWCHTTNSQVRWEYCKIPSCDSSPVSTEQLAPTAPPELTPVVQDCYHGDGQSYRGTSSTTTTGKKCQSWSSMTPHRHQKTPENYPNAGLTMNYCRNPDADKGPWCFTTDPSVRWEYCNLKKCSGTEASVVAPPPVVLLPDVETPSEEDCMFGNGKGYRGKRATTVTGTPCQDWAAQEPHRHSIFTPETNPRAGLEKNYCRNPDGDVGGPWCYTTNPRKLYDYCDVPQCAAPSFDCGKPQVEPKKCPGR
Experimental: (§1) The values in Table 1 represent molar concentrations (IC50) of test compounds which inhibit 50% of the activity of each enzyme to hydrolyze TAME (tosylarginine methyl ester). The anti-trypsin, anti-plasmin, anti-kallikrein and anti-thrombin activities were determined according to the method of Muramatsu et al. (J. Biochem. (1965), volume 58, page 214).

thrombin = thrombin (Homo sapiens, UniProt P00734); assay: anti-thrombin activity, hydrolysis of TAME (tosylarginine methyl ester); conditions: for IC50: hydrolysis of TAME, read-out: Thr: molar concentration inhibiting 50% of enzyme activity (IC50); for inhibition at 10 µM: at a concentration of 1 × 10^-5 M, read-out: Thr: percentage inhibition
Experimental: as §1

C1r = target: T3, C1r (Homo sapiens, UniProt P00736); assay: anti-complement (anti-C1 esterase) activity, C1r hydrolysis of AAME (acetyl-arginine methyl ester); conditions: for inhibition at 10 µM: read-out: Clr: percentage inhibition
T3 sequence (P00736 18-705): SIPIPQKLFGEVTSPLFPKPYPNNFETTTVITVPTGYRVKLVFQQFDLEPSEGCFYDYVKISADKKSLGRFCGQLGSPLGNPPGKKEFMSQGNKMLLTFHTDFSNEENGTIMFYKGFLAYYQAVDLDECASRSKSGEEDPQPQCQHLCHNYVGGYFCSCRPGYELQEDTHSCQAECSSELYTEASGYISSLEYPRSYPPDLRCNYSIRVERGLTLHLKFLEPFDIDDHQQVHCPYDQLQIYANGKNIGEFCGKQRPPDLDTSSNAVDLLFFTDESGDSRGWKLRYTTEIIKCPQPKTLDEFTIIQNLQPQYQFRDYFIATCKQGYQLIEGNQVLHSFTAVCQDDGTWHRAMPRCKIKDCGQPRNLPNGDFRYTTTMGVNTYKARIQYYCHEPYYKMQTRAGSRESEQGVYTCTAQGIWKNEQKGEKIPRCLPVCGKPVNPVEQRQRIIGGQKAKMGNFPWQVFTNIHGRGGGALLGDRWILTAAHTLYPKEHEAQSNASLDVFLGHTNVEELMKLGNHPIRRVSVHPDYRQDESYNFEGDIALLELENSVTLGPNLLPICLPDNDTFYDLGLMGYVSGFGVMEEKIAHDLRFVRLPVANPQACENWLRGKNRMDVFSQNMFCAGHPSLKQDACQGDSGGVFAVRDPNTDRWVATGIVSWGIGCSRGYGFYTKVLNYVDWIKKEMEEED

kallikrein = assay: anti-kallikrein activity, hydrolysis of TAME (tosylarginine methyl ester); conditions: for IC50: hydrolysis of TAME, read-out: Kal: molar concentration inhibiting 50% of enzyme activity (IC50); for Kal: percentage inhibition: at a concentration of 1 × 10^-5 M
Experimental: as §1

[1] = hydrolysis of TAME, read-out: Pla: molar concentration inhibiting 50% of enzyme activity (IC50)
[2] = hydrolysis of AAME, read-out: Clr: molar concentration inhibiting 50% of C1r activity (IC50)
[3] = hydrolysis of TAME, read-out: Try: molar concentration inhibiting 50% of enzyme activity (IC50)

Row | SMILES | IC50 (trypsin) [nM] | IC50 (C1s) [nM] | IC50 (plasmin; [1]) [nM] | IC50 (thrombin) [nM] | IC50 (C1r; [2]) [nM] | IC50 (kallikrein) [nM] | IC50 (trypsin; [3]) [nM] | inhibition at 10 µM (C1s; read-out: Cls: percentage inhibition) [%] | inhibition at 10 µM (thrombin) [%] | inhibition at 10 µM (C1r; at a concentration of 1 × 10^-5 M) [%] | Kal: percentage inhibition (kallikrein) [%] | inhibition at 10 µM (trypsin; read-out: Try: percentage inhibition) [%] | inhibition at 10 µM (C1r) [%] | IC50 (C1r) [nM] | IC50 (plasmin) [nM]
1 | CC(C)(C)OC(=O)C=Cc1ccc(C(=O)NCc2ccc(C(=O)Oc3ccc4cc(C(=N)N)ccc4c3)o2)cc1 [Example 1, 6-Amidino-2-naphthyl 5-[4-(2-t-butoxycarbonylvinyl)benzoylaminomethyl]furan-2-carboxylate hydrobromide] | 350 | 270 | 150 | 350 | 340 | 470 |  |  |  |  |  |  |  |  | 
2 | Cl.N=C(N)c1ccc2cc(OC(=O)c3ccc(CNC(=O)c4ccc(C=CC(=O)O)cc4)o3)ccc2c1 [Example 2, 6-Amidino-2-naphthyl 5-[4-(2-carboxyvinyl)benzoylaminomethyl]furan-2-carboxylate hydrochloride] |  |  | 4800 |  |  |  | 8400 | 17 | 47 | 29 | 46 |  |  |  | 
3 | Cl.N=C(N)c1ccc2cc(OC(=O)c3ccc(CNC(=O)c4ccc(C(=O)O)cc4)o3)ccc2c1 [Example 3, 6-Amidino-2-naphthyl 5-(4-carboxybenzoylaminomethyl)furan-2-carboxylate hydrochloride] |  | 3400 | 8600 |  |  |  |  |  | 26 |  | 33 | 48 | 34 |  | 
4 | COC(=O)Cc1ccc(C(=O)NCc2ccc(C(=O)Oc3ccc4cc(C(=N)N)ccc4c3)o2)cc1 [Example 4, 6-Amidino-2-naphthyl 5-(4-methoxycarbonylmethylbenzoylaminomethyl)furan-2-carboxylate hydrochloride] |  | 160 | 72 | 70 | 64 | 210 | 340 |  |  |  |  |  |  |  | 
5 | CC(C)(C)OC(=O)c1ccc(CC(=O)NCc2ccc(C(=O)Oc3ccc4cc(C(=N)N)ccc4c3)o2)cc1 [Example 5, 6-Amidino-2-naphthyl 5-(4-t-butoxycarbonylphenylacetylaminomethyl)furan-2-carboxylate hydrochloride] |  | 360 | 100 | 180 | 73 | 300 | 340 |  |  |  |  |  |  |  | 
6 | N=C(N)c1ccc2cc(OC(=O)c3ccc(CNC(=O)c4ccc(CC(=O)O)cc4)o3)ccc2c1 [Example 7, 6-Amidino-2-naphthyl 5-(4-carboxymethylbenzoylaminomethyl)furan-2-carboxylate hydrochloride] |  | 460 | 300 | 400 | 740 | 1500 | 1800 |  |  |  |  |  |  |  | 
7 | N=C(N)c1ccc2cc(OC(=O)c3ccc(CNC(=O)C=Cc4ccc(C(=O)O)cc4)o3)ccc2c1 [Example 8, 6-Amidino-2-naphthyl 5-(4-carboxycinnamoylaminomethyl)furan-2-carboxylate hydrochloride] |  | 2000 | 1100 | 1400 | 830 | 2700 | 2100 |  |  |  |  |  |  |  | 
8 | N=C(N)c1ccc2cc(OC(=O)c3ccc(CNC(=O)c4ccc(CCC(=O)O)cc4)o3)ccc2c1 [Example 9, 6-Amidino-2-naphthyl 5-[4-(2-carboxyethyl)benzoylaminomethyl]furan-2-carboxylate hydrochloride] |  | 2300 | 500 | 650 | 2800 | 6000 | 4800 |  |  |  |  |  |  |  | 
9 | N=C(N)c1ccc2cc(OC(=O)c3ccc(CNC(=O)[C@H]4CC[C@@H](C(=O)O)CC4)o3)ccc2c1 [Example 10, 6-Amidino-2-naphthyl 5-(cis-4-carboxy-1-cyclohexanoylaminomethyl)furan-2-carboxylate hydrochloride] |  | 26 | 150 | 1600 |  | 250 | 600 |  |  |  |  |  |  | 160 | 
10 | N=C(N)c1ccc2cc(OC(=O)c3ccc(CNC(=O)/C=C\C(=O)O)o3)ccc2c1 [Example 12, 6-Amidino-2-naphthyl 5-(cis-2-carboxyvinyl)carbonylaminomethylfuran-2-carboxylate methanesulfonate] |  | 210 | 270 | 600 | 2800 | 770 | 480 |  |  |  |  |  |  |  | 
11 | CC(C)(C)OC(=O)CC(=O)NCc1ccc(C(=O)Oc2ccc3cc(C(=N)N)ccc3c2)o1 [Example 15, 6-Amidino-2-naphthyl 5-t-butoxymalonylaminomethylfuran-2-carboxylate hydrochloride] |  | 230 | 310 | 400 | 840 | 320 | 710 |  |  |  |  |  |  |  | 
12 | N=C(N)c1ccc2cc(OC(=O)c3ccc(CNC(=O)C(=O)O)o3)ccc2c1 [Example 16, 6-Amidino-2-naphthyl 5-oxaloaminomethylfuran-2-carboxylate hydrochloride] |  | 350 | 240 | 1300 | 6900 | 3800 | 340 |  |  |  |  |  |  |  | 
13 | CC(C)(C)OC(=O)CCC(=O)NCc1ccc(C(=O)Oc2ccc3cc(C(=N)N)ccc3c2)o1 [Example 18, 6-amidino-2-naphthyl 5-(3-t-butoxycarbonylpropionylaminomethyl)furan-2-carboxylate hydrochloride] |  | 190 |  | 350 | 340 | 210 | 400 |  |  |  |  |  |  |  | 190
14 | CC(C)(C)OC(=O)CCCC(=O)NCc1ccc(C(=O)Oc2ccc3cc(C(=N)N)ccc3c2)o1 [Example 19, 6-Amidino-2-naphthyl 5-(4-t-butoxycarbonyl-butyrylaminomethyl)furan-2-carboxylate hydrochloride] |  | 720 | 170 | 360 | 1800 | 250 | 250 |  |  |  |  |  |  |  | 
15 | CC(C)(C)OC(=O)CCC(NC(=N)N)C(=O)NCc1ccc(C(=O)Oc2ccc3cc(C(=N)N)ccc3c2)o1 (stereo not drawn) [Example 20, 6-amidino-2-naphthyl 5-(4-t-butoxycarbonyl-2-guanidinobutyrylaminomethyl)furan-2-carboxylate hydrochloride hydrobromide] |  | 390 | 180 | 460 | 380 | 130 | 2000 |  |  |  |  |  |  |  | 
16 | N=C(N)c1ccc2cc(OC(=O)c3ccc(CNC(=O)CCC(=O)O)o3)ccc2c1 [Example 21, 6-amidino-2-naphthyl 5-(3-carboxypropionylaminomethyl)furan-2-carboxylate hydrochloride] |  | 180 | 330 | 960 | 540 | 700 | 310 |  |  |  |  |  |  |  | 
